Like-named read-outs stand apart in the source and are kept apart here. Blank lines part the entries; values can stand above or below the compound they belong to.
What was measured:
[1] = Decomposition stability of single perfume component in sodium chlorite/benzalkonium chloride preparation, GC-MS, Example 5; conditions: for Area change rate (%) / Decomposition stability of additive component: 50° C. for 2 weeks
[2] = Decomposition stability of perfume components in sodium chlorite/benzalkonium chloride preparation, GC-MS, Examples 1 to 4 (perfume mixtures)
[3] = Lewis acidity measurement method (1): reaction rate constant of CoTPP and oxygen in the presence of Lewis acid; assay type: physicochemical
[4] = perfume component 2 ppm in preparation
[5] = perfume component 3 ppm in preparation
[6] = perfume component 5 ppm in preparation
[7] = perfume component 1 ppm in preparation
[8] = Examples 1 to 4, aged products after 2 weeks of storage, GC-MS
[9] = perfume component 10 ppm in preparation
[10] = perfume component 50 ppm in preparation
[11] = perfume component 6 ppm in preparation
[12] = CoTPP and oxygen under the presence of Lewis acid, MeCN, room temperature

Compound: CC(C)C12CCC(C)(CC1)O2 [1,4-cineole]
Area change rate (%) [1, 4]: 95%

Compound: OCc1ccccc1 [Benzyl alcohol]
Area change rate (%) [1, 5]: 84%
Decomposition stability of additive component [1, 5]: ∘ (70% or more)

Compound: CC12CCC(CC1)C(C)(C)O2 [Eucalyptol]
Area change rate (%) [1, 7]: 99%
Decomposition stability of additive component [1, 7]: ∘ (70% or more)

Compound: Cc1coc2c1CCC(C)C2 (centres unmarked) [Menthofuran, reference compound]
Fate of perfume component in aged product (in words) [2, 8]: no peaks were observed

Compound: CC(C)=C1CC[C@@H](C)CC1=O [Pulegone]
Area change rate (%) [1, 6]: 100%
Decomposition stability of additive component [1, 6]: ∘ (70% or more)

Compound: CC(C)C12CCC(C)(O)C1C2 (centres unmarked) [Thujanol, reference compound]
Fate of perfume component in aged product (in words) [2]: no peaks were observed

Compound: CC(C)(C)CC(C)(C)c1ccc(OCCOCC[N+](C)(C)Cc2ccccc2)cc1.[Cl-] [benzetonium chloride, benzethonium chloride]
kcat [3, 12]: 0.24 M^−2 s^−1

Compound: CCCC[N+](CCCC)(CCCC)CCCC.F[P-](F)(F)(F)(F)F [tetrabutylammonium hexafluorophosphate]
kcat [3]: >0.1 M^−2 s^−1

Compound: benzalkonium chloride
kcat [3, 12]: 0.18 M^−2 s^−1

The remaining lines, values ahead:

Area change rate (%) [1, 6]: 98%
Decomposition stability of additive component [1, 6]: ∘ (70% or more)
Compound: C=C(C)C1CC=C(C)C(=O)C1 (centres unmarked) [Carvone]

Area change rate (%) ([1]; perfume component 4 ppm in preparation): 91%
Compound: C=C(C)[C@@H]1CC[C@@H](C)C(=O)C1 [Dihydrocarvone]

Area change rate (%) [1, 4]: 99%
Compound: CC1CCC(C(C)(C)O)CC1 (centres unmarked) [Dihydroterpineol]

Area change rate (%) [1, 6]: 97%
Compound: C=CCc1ccc(O)c(OC)c1 [Eugenol]

Fate of perfume component in aged product (in words) [2, 8]: no peaks were observed
Fate of perfume component in aged product (in words) ([1]; Example 5, aged product after 2 weeks at 50° C., GC-MS): remarkably decreased
Area change rate (%) [1, 6]: 0%
Compound: C=CC(C)(O)CCC=C(C)C (centres unmarked) [Linalool, reference compound]

Area change rate (%) [1, 6]: 100%
Decomposition stability of additive component [1, 6]: ∘ (70% or more)
Area change rate (%) [1, 9]: 100%
Decomposition stability of additive component [1, 9]: ∘ (70% or more)
Area change rate (%) [1, 10]: 100%
Decomposition stability of additive component [1, 10]: ∘ (70% or more)
Compound: CC1CCC(C(C)C)C(O)C1 (centres unmarked) [Menthol]

Area change rate (%) [1, 6]: 75%
Decomposition stability of additive component [1, 6]: ∘ (70% or more)
Area change rate (%) [1, 9]: 80%
Decomposition stability of additive component [1, 9]: ∘ (70% or more)
Compound: CC(C)[C@@H]1CC[C@@H](C)CC1=O [Menthone]

Area change rate (%) [1, 11]: 89%
Decomposition stability of additive component [1, 11]: ∘ (70% or more)
Compound: CC1=CC(=O)C(C(C)C)CC1 (centres unmarked) [Piperitone]

Area change rate (%) [1, 6]: 76%
Decomposition stability of additive component [1, 6]: ∘ (70% or more)
Compound: Cc1ccc(C(C)C)c(O)c1 [Thymol]

Fate of perfume component in aged product (in words) [2, 8]: no peaks were observed
Compound: Cc1ccccc1C(C)C [o-cymene, reference compound]

From patent US20250221408A1, “COMPOSITION” (EARTH CORPORATION, priority 2022, published 2025)
